Numbers after ± are expanded uncertainties.
Key:
[1] = refractive index (Na D-line) (dimensionless); conditions: 101.33 kPa, Liquid
[2] = 101.33 kPa, Liquid

CCOC(=O)C(=O)OCC [diethyl ethanedioate]
refractive index ([1]; 298.15 K): 1.4084 ± 0.0006 | refractive index ([1]; 303.15 K): 1.406 ± 0.0006 | refractive index ([1]; 308.15 K): 1.4034 ± 0.0006 | mass density ([2]; 298.15 K): 1072.9 ± 1.1 kg/m3 | speed of sound ([2]; 298.15 K): 1276 ± 3 m/s | viscosity ([2]; 298.15 K): 1.759 ± 0.021 mPa·s | mass density ([2]; 303.15 K): 1066.2 ± 1.1 kg/m3 | viscosity ([2]; 303.15 K): 1.581 ± 0.019 mPa·s | mass density ([2]; 308.15 K): 1060.8 ± 1.2 kg/m3 | viscosity ([2]; 308.15 K): 1.437 ± 0.017 mPa·s

CCOC(=O)c1ccccc1C(=O)OCC [diethyl phthalate]
refractive index ([1]; 298.15 K): 1.5001 ± 0.0009 | refractive index ([1]; 303.15 K): 1.4978 ± 0.0009 | refractive index ([1]; 308.15 K): 1.4958 ± 0.0009 | mass density ([2]; 298.15 K): 1115.1 ± 2.1 kg/m3 | speed of sound ([2]; 298.15 K): 1446 ± 5 m/s | viscosity ([2]; 298.15 K): 7.926 ± 0.14 mPa·s | mass density ([2]; 303.15 K): 1110.2 ± 2.1 kg/m3 | viscosity ([2]; 303.15 K): 6.129 ± 0.11 mPa·s | mass density ([2]; 308.15 K): 1105.6 ± 2.1 kg/m3 | viscosity ([2]; 308.15 K): 4.893 ± 0.091 mPa·s

CCCCCCCCOC(=O)c1ccccc1C(=O)OCCCCCCCC [dioctyl 1,2-benzenedicarboxylate]
refractive index ([1]; 298.15 K): 1.485 ± 0.0025 | refractive index ([1]; 303.15 K): 1.4831 ± 0.0025 | refractive index ([1]; 308.15 K): 1.481 ± 0.0025 | mass density ([2]; 298.15 K): 980.7 ± 1 kg/m3 | speed of sound ([2]; 298.15 K): 1421 ± 3 m/s | viscosity ([2]; 298.15 K): 43.03 ± 0.7 mPa·s | mass density ([2]; 303.15 K): 977.1 ± 1 kg/m3 | viscosity ([2]; 303.15 K): 30.18 ± 0.5 mPa·s | mass density ([2]; 308.15 K): 973.1 ± 1 kg/m3 | viscosity ([2]; 308.15 K): 21.88 ± 0.37 mPa·s

CCOC(=O)CC(C)=O [ethyl 3-oxobutanoate]
refractive index ([1]; 298.15 K): 1.4166 ± 0.0007 | refractive index ([1]; 303.15 K): 1.4145 ± 0.0007 | refractive index ([1]; 308.15 K): 1.412 ± 0.0007 | mass density ([2]; 298.15 K): 1020.9 ± 1.1 kg/m3 | speed of sound ([2]; 298.15 K): 1331 ± 3 m/s | viscosity ([2]; 298.15 K): 1.48 ± 0.019 mPa·s | mass density ([2]; 303.15 K): 1014.9 ± 1.2 kg/m3 | viscosity ([2]; 303.15 K): 1.339 ± 0.017 mPa·s | mass density ([2]; 308.15 K): 1010.2 ± 1.2 kg/m3 | viscosity ([2]; 308.15 K): 1.239 ± 0.016 mPa·s

From the NIST ThermoML archive (doi:10.1021/je0301489)
